This assay concerns leup operon (leupeptin BGC) promoter in K. oxytoca ATCC 8724. Description: GFP-based transcriptional reporter for the leup operon. It counts as cell-based, Klebsiella oxytoca. The following applies: carbohydrate screen, M9 + casamino acid + 0.4% indicated sugar, 30 °C, 24 h; for GFP fluorescence, GFP Strain + Media: leup GFP reporter strain; for GFP fluorescence, WT + Media: wildtype K. oxytoca without reporter (background). An excerpt:
We previously examined a panel of 84 clinical K. oxytoca isolates (including recently renamed Klebsiella michiganensis isolates) for the presence of either the leup operon or npsB, an NRPS of the tilimycin/tilivalline gene cluster. […] While the roles of tilivalline and tilimycin in hemorrhagic colitis are well studied[8],[9], the operon for leupeptin biosynthesis is “silent” in K. oxytoca under typical laboratory culture conditions (i.e., leupeptin production is undetectable). Therefore, our study commenced by exploring growth conditions required to trigger leupeptin biosynthesis in K. oxytoca. To achieve this, we generated a green fluorescent protein (GFP)-based reporter system to monitor leup transcription in K. oxytoca ATCC 8724 (recently renamed as Klebsiella michiganensis (ATCC 8724), Fig. 1a). We utilized λ-red recombineering techniques[38] to replace the first biosynthetic gene (leupA) of the leupeptin BGC with a GFP-spectinomycin resistance cassette. […] Consequently, conditions that elicit transcription of the leupeptin BGC can be monitored by GFP fluorescence intensity.
5 mL of the leupeptin reporter strain was cultured aerobically in 10 g/L of LB (Becton Dickinson), yeast extract, GAM (HiMedia Laboratories), horse liver extract (HiMedia Laboratories), malt extract (VWR), meat extract (HiMedia Laboratories), YPD (Dot Scienticifc), brain heart infusion (Becton Dickinson), porcine mucin (Sigma-Aldrich, M1778), clostridial (Becton Dickinson), TSB (VWR), or casamino acid supplemented (5 g/L, VWR) M9 minimal salts (MP Biomedicals) at 30 °C for 24 h at 250 rpm. Cultures were lysed via sonication, centrifuged, and 150 µL of the supernatants were aliquoted into black well clear bottom 96 well plates. GFP fluorescence measurements were performed on a BioTek Synergy H1 plate reader with an excitation wavelength of 488 nm and an emission wavelength of 525 nm. For the carbohydrate screen, the leupeptin reporter strain was cultured in M9 minimal medium (MPbio) supplemented with casamino acid (5 g/L, VWR) and 0.4% indicated sugar aerobically at 30 °C for 24 h at 250 rpm.

Regarding `O=C(CO)[C@@H](O)[C@H](O)[C@H](O)CO` [Fructose], the “GFP fluorescence, GFP Strain + Media” value came to 9618 RFU and the “GFP fluorescence, WT + Media” value is 6828 RFU.
Consider `CC(=O)N[C@H]1C(O)O[C@H](CO)[C@H](O)[C@@H]1O` (stereo partly drawn) [GalNAc], for which the “GFP fluorescence, GFP Strain + Media” value is 9643 RFU and the “GFP fluorescence, WT + Media” value is 8779 RFU.
As to `O=C[C@H](O)[C@@H](O)[C@@H](O)[C@H](O)CO` [Galactose], the “GFP fluorescence, GFP Strain + Media” value worked out at 9159 RFU and the “GFP fluorescence, WT + Media” value was found to be 6849 RFU.
Turning to `CC(=O)N[C@@H]1[C@@H](O)[C@H](O)[C@@H](CO)O[C@H]1O` [GlcNAc], the “GFP fluorescence, GFP Strain + Media” value was 9678 RFU and the “GFP fluorescence, WT + Media” value was determined as 5235 RFU.
`N[C@H]1C(O)O[C@H](CO)[C@@H](O)[C@@H]1O` (stereo partly drawn) [Glucosamine]: the “GFP fluorescence, GFP Strain + Media” value was 9974 RFU and the “GFP fluorescence, WT + Media” value came out at 5479 RFU.
For the compound `OC[C@H]1OC(O)[C@H](O)[C@@H](O)[C@@H]1O` (stereo partly drawn) [Glucose], the “GFP fluorescence, GFP Strain + Media” value stood at 9593 RFU and the “GFP fluorescence, WT + Media” value was 8596 RFU.
`CC(C)S[C@@H]1O[C@H](CO)[C@H](O)[C@H](O)[C@H]1O` [IPTG]: the “GFP fluorescence, GFP Strain + Media” value is listed as 9918 RFU and the “GFP fluorescence, WT + Media” value worked out at 8873 RFU.
For `OC[C@@H](O)[C@@H](O)[C@H](O)[C@@H](O)CO` [Sorbital], the “GFP fluorescence, GFP Strain + Media” value is on record as 10051 RFU and the “GFP fluorescence, WT + Media” value was 6226 RFU.
In the case of `O=C[C@H](O)[C@@H](O)[C@H](O)CO` [Xylose], the “GFP fluorescence, GFP Strain + Media” value is listed as 9892 RFU and the “GFP fluorescence, WT + Media” value was 5418 RFU.
